The values that follow come from ChEMBL document CHEMBL5223149, “The Emerging Landscape of Small-Molecule Therapeutics for the Treatment of Huntington's Disease” (J Med Chem, 2022).

As usually defined, the IC50 is the concentration needed to halve the response being measured. Usually solubility stands for the concentration that dissolves in the medium under given conditions. A higher solubility goes with much dissolved substance. The term bioavailability denotes the share of a dose that reaches the circulation, judged against a reference dose that is usually intravenous. Read a high bioavailability as good availability. The term Kd denotes the free concentration of one partner at which half of the binding sites on the other are occupied at equilibrium, for simple one-to-one binding. As a reminder, the EC50 is the concentration at which the effect is half-maximal. A higher EC50 goes with a need for much substance.

The target of data set [1] is T1, Protein-glutamine gamma-glutamyltransferase (Homo sapiens, UniProt P21980).
T1 sequence (P21980 whole entry): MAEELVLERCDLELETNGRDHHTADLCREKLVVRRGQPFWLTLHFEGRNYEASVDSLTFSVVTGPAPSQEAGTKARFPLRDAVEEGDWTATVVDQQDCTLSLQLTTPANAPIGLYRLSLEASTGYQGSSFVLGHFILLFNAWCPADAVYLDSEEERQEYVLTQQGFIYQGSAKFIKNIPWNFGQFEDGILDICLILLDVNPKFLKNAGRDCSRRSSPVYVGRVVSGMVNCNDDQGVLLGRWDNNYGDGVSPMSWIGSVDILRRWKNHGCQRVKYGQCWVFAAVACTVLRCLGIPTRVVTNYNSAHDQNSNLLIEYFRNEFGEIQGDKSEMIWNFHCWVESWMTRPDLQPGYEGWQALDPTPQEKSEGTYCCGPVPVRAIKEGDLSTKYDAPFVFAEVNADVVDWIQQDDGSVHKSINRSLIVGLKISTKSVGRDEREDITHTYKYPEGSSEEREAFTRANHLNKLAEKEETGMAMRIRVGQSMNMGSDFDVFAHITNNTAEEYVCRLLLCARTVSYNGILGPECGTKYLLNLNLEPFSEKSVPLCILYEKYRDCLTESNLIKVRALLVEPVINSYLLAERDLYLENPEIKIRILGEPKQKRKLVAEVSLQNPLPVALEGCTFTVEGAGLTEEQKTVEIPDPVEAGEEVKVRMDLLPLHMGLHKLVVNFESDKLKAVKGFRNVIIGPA
In words: Inhibition of TG2 (unknown origin).

In data set [2] the target is Kelch-like ECH-associated protein 1 (Homo sapiens, UniProt Q14145). Kind of data set: Inhibition of KEAP1 (unknown origin).
Chain of Kelch-like ECH-associated protein 1 (Q14145 whole entry): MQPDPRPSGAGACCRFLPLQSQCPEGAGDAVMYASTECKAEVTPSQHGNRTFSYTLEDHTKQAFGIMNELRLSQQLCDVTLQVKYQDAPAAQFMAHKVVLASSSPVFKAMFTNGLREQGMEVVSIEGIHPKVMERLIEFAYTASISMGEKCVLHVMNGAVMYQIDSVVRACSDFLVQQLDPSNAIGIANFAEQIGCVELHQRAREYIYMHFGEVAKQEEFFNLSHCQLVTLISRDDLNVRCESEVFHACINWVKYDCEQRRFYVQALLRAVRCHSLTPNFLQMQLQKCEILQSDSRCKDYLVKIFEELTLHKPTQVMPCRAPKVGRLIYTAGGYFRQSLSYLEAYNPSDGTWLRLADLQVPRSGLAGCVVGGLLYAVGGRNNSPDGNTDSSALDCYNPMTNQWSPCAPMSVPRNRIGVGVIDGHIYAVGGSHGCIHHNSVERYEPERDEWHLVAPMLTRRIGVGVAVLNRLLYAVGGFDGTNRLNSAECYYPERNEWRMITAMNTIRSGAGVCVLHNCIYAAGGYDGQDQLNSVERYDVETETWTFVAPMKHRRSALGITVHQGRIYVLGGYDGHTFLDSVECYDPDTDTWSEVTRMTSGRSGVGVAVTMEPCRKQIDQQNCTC
A short description of data set [3]: Solubility of the compound. Format: physicochemical.
The nature of another data set: in vivo. Conditions: mouse, po.
The nature of data set [4]: Toxicity in Drosophila infected with huntington disease assessed as survival rate at 1 to 30 uM relative to control. The conditions noted are these: dose 1-30 µM, read-out: Activity.
Data set [5] has as its target T2, NAD-dependent protein deacetylase sirtuin-2 (Homo sapiens, UniProt Q8IXJ6).
T2 sequence (Q8IXJ6 whole entry): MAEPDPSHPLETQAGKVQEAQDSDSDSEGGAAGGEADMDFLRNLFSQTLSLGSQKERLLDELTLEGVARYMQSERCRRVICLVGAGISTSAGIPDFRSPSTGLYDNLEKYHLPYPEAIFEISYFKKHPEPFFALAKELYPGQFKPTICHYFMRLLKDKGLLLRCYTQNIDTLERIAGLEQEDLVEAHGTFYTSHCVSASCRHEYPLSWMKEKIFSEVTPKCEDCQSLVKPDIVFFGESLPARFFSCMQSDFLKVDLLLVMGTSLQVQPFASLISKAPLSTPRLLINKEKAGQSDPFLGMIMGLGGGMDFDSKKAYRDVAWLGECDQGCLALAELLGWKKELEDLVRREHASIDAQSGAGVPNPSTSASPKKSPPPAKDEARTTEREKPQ
In words: Inhibition of human recombinant SIRT2 using alpha-tubulin as substrate by coupled enzymatic analysis.

Data set [6] is described as follows: Binding affinity to PDI (unknown origin). Also on record: species or system Homo sapiens.
Data set [7] in a line: Inhibition of PDI (unknown origin). More on the design: species or system Homo sapiens.

Values after ≈ are worked out from the molar mass of the structure shown.

In data set [1], `C=CC(=O)NCCCCC(NC(=O)OCc1ccccc1)C(=O)N1CCN(c2ccccc2Cl)CC1` (stereo not drawn) had an IC50 of 62 nM.
Take `O=C(O)[C@H]1CCC[C@H]1C(=O)N1CCc2c(O)cccc2[C@H]1CN1C(=O)c2ccccc2C1=O`: the IC50 in data set [2] turned out to be 98 nM.
`O=c1cc(N2CCOCC2)cc(N2CCCCC[C@@H]2Cc2ccccc2)[nH]1` registered a solubility in data set [3] of 58 µg/mL (≈ 158 µM). The compound further had a bioavailability in the data set “in vivo” of 68%.
In the case of `O=[N+]([O-])c1ccc(Sc2nnc(COc3ccccc3)n2-c2ccccc2)c2ncccc12`, the survival in data set [4] was 20.7%. Further, the IC50 in data set [5] turned out to be 1200 nM.
`O=C(C1CC1)N1CCN(Cn2sc3ccccc3c2=O)CC1` gave a Kd in data set [6] of 62 nM. For the same compound, in data set [7], a half-maximal effect (EC50) was put at 500 nM.
